Source: US10202346B2, “Phenol derivatives and the pharmaceutical or cosmetic use thereof” (Galderma Research & Development, priority 2009, dated 2019)

How the values were obtained:
[1] = molecular target: T1, receptors of AR type (Homo sapiens, UniProt P10275); assay: AR transactivation test in PALM (PC3 Androgen receptor Luciferase MMTV) cell line; assay type: cell-based; details: cross curves against reference agonist methyltrienolone, read-out: Kdapp (apparent dissociation constant)
T1 construct: expressed in transfected cells; host or cells: PALM cells (PC3 stably transfected with PMMTV-neo-Luc and pSG5puro-AR)
T1 sequence (P10275 1-920): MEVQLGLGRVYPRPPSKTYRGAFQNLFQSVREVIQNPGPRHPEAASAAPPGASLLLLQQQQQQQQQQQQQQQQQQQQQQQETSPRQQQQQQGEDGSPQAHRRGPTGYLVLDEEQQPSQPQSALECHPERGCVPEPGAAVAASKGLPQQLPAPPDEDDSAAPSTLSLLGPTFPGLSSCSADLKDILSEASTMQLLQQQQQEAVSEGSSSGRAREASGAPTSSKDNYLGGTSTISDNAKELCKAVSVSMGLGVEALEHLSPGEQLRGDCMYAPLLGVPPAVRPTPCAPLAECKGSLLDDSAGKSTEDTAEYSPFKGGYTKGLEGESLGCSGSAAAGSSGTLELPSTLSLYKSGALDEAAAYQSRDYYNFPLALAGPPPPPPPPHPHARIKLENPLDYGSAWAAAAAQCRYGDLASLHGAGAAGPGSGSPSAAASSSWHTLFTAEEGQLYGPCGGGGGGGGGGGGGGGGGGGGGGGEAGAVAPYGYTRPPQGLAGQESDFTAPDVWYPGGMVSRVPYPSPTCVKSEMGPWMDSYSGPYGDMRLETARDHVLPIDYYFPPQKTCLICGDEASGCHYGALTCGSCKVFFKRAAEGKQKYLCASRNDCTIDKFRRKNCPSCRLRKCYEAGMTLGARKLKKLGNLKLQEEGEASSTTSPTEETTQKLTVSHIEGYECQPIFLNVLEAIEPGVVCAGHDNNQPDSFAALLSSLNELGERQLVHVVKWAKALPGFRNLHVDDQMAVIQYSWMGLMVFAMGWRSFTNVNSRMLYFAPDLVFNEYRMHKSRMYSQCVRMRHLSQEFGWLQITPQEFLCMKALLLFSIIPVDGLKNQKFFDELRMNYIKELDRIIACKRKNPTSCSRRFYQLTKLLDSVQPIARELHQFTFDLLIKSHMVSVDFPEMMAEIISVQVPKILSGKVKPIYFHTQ
Protocol: The compounds according to the invention show inhibitory properties on receptors of AR type. This AR receptor-inhibiting activity is measured in a transactivation test through the KdR (resting), KdA (active) and Kdapp (apparent) dissociation constants according to the method set out in J. Molecular Biology (1965), 12(1), 88-118, Monod J. of et al.
The transactivation test is carried out in the PALM (PC3 Androgen receptor Luciferase MMTV) cell line which is a stable transfectant containing the PMMTV-neo-Luc (reporter gene) and pSG5puro-AR plasmids.
In this study, the affinity of each product for the 2 receptor states (KdR and KdA) is determined, as is an apparent Kd (KdApp). This constant is a result of the 2 Kd, but also depends on the initial equilibrium of the receptor between the active state and the resting state (L0) and on its expression level. It is determined by means of the following formula: 1/KdApp=(L0/(1+L0))×(1/KdR)+(1/(1+L0))×(1/KdA)
To determine these constants, “cross curves” of the test product against a reference agonist, methyltrienolone, are produced in 96-well plates. The test product is used at 10 concentrations and the reference agonist at 7 concentrations, […]

melting point | Kd [1] | SMILES
137 °C | 20 nM | COc1cc(NCc2ccccc2O)cc(Br)n1 [Example 1, 2-[(2-Bromo-6-methoxypyridin-4-ylamino)methyl]phenol]
– | 4 nM | Oc1ccccc1CNc1ccnc(Cl)c1 [Example 2, 2-[(2-Chloropyridin-4-ylamino)methyl]phenol]
– | 20 nM | Oc1ccc(F)cc1CNc1ccnc(Br)c1 [Example 4, 2-[(2-Bromopyridin-4-ylamino)methyl]-4-fluorophenol]
– | 50 nM | COc1cc(NCc2ccccc2O)ccn1 [Example 5, 2-[(2-Methoxypyridin-4-ylamino)methyl]phenol]
